Molecular target: T1, recombinant human Cathepsin K (Homo sapiens, UniProt P43235)
T1 sequence (P43235 115-329): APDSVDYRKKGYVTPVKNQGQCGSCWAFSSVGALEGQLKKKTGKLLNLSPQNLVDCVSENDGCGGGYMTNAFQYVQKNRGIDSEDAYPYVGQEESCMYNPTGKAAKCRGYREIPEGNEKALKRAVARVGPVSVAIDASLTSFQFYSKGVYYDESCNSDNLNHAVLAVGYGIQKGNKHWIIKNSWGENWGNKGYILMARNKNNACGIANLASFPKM
Assay: Cathepsin K activity: inhibition of recombinant human Cathepsin K (fluorogenic substrate Z-Phe-Arg-AMC)
Type: biochemical
Conditions: sodium acetate pH5.5, fluorescence at 10 minutes, read-out: pIC50 (negative logarithm of the IC50 concentration) for inhibition of human cathepsin K (converted)
Experimental: 10µl of a 1mg/l solution of activated recombinant human cathepsin K, in assay buffer, is then added to the well, yielding a final inhibitor concentration of 10µM. • Enzyme activity is determined by measuring the fluorescence of the liberated aminomethylcoumarin at […] using 390nm excitation, at 10 minutes. Percentage enzyme activity is calculated by comparison of this activity to that of a solution containing no inhibitor. Compounds are subsequently subjected to a dose response curve analysis in order to determine IC50 values for active compounds (where IC50 is the concentration of test compound causing 50 % inhibition of the enzymatic activity). Compounds of the invention typically have a pIC50 (negative logarithm of the IC50 concentration) for inhibition of human cathepsin K of more than 6, preferably more than 7 and most preferably a pIC50 of more than 8, such as for the compounds of Examples 1, 2a, 2b, 3, 5, 6, 8, 12, 14, 13, 16k, 16n, 16o, 17, 22a, 22b, 22c

- IC50: < 10 nM
SMILES: CC(C)N1CCN(c2cc(-c3cccc(C(F)(F)F)c3)nc(C#N)n2)CC1 [Example 3, 4-(4-Isopropyl-piperazin-1-yl)-6-(trifluoromethyl-phenyl)-pyrimidine-2-carbonitrile]

— patent EP1928842B1, “4-PHENYL-6-SUBSTITUTED-PYRIMIDINE-2-CARBONITRILE DERIVATIVES” (priority 2005, dated 2007)
